Tests used:
Assay in all cases: Test C greenhouse herbicide test, pre- and postemergence
Format in all cases: in vivo
[1] = test system: ragweed (common ragweed, Ambrosia elatior)
Summary of the method: (§1)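 Each species was treated both before emergence, in a loam–sand soil mix, and after emergence, as 1- to 4-leaf seedlings in peat-based potting medium. Plants stayed in the greenhouse 13 to 15 d, then were scored from 0 (no effect) to 100 (complete control) relative to controls.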

[2] = test system: waterhemp (common waterhemp, Amaranthus rudis)
Summary of the method: as §1

[3] = test system: galium (catchweed bedstraw, Galium aparine)
Summary of the method: as §1

soybean (Glycine max) = test system: soybean (Glycine max)
Summary of the method: as §1

[4] = test system: barnyardgrass (Echinochloa crus-galli)
Summary of the method: as §1

[5] = test system: lambsquarters (Chenopodium album)
Summary of the method: as §1

[6] = test system: ryegrass, Italian (Italian ryegrass, Lolium multiflorum)
Summary of the method: as §1

[7] = test system: morningglory (Ipomoea coccinea)
Summary of the method: as §1

[8] = test system: crabgrass, large (large crabgrass, Digitaria sanguinalis)
Summary of the method: as §1

[9] = test system: velvetleaf (Abutilon theophrasti)
Summary of the method: as §1

corn (Zea mays) = test system: corn (Zea mays)
Summary of the method: as §1

[10] = test system: foxtail, giant (giant foxtail, Setaria faberii)
Summary of the method: as §1

[11] = test system: nutsedge, yellow (yellow nutsedge, Cyperus esculentus)
Summary of the method: as §1

[12] = test system: oilseed rape (Brassica napus)
Summary of the method: as §1

[13] = test system: blackgrass (Alopecurus myosuroides)
Summary of the method: as §1

[14] = Postemergence, 31 g ai/ha, scale 0 to 100 (0 no effect, 100 complete control)
[15] = Postemergence, 125 g ai/ha, scale 0 to 100, 0 is no effect, 100 is complete control
[16] = Postemergence, 250 g ai/ha, scale 0 to 100, 0 no effect, 100 complete control, 13 to 15 d
[17] = Preemergence, 31 g ai/ha, scale 0 to 100, 0 is no effect, 100 is complete control
[18] = Preemergence, 62 g ai/ha, scale 0 to 100, 0 is no effect, 100 is complete control
[19] = Preemergence, 125 g ai/ha, scale 0 to 100, 0 is no effect, 100 is complete control
[20] = Preemergence, 250 g ai/ha, scale 0 to 100, 0 no effect, 100 complete control
[21] = postemergence, 62 g ai/ha, scale 0 to 100, 0 no effect, 100 complete control

CC(=O)Oc1c(C)nn(C)c(=O)c1-c1c(C)sc2ccc(Cl)cc12 [Compound 108]
5: Plant response rating, Barnyardgrass [4, 17] | Plant response rating, Crabgrass, Large [8, 14] | Plant response rating, Crabgrass, Large [8, 17] | Plant response rating, Corn (corn (Zea mays); [14]) | Plant response rating, Corn (corn (Zea mays); [17]) | Plant response rating, Corn (corn (Zea mays); [19]) | Plant response rating, Oilseed Rape [12, 17]
60: Plant response rating, Barnyardgrass [4, 16] | Plant response rating, Ryegrass, Italian [6, 17] | Plant response rating, Blackgrass [13, 19]
55: Plant response rating, Blackgrass [13, 16]
95: Plant response rating, Galium [3, 15] | Plant response rating, Galium [3, 16] | Plant response rating, Galium [3, 19] | Galium plant response rating [3, 20] | Ryegrass, Italian plant response rating [6, 20] | Foxtail, Giant plant response rating [10, 20] | Plant response rating, Oilseed Rape [12, 16]
10: Plant response rating, Soybean (soybean (Glycine max); [14]) | Crabgrass, Large plant response rating [8, 21] | Plant response rating, Corn (corn (Zea mays); [18]) | Plant response rating, Blackgrass [13, 17]
15: Plant response rating, Soybean (soybean (Glycine max); [15]) | Plant response rating, Soybean (soybean (Glycine max); [16]) | Corn plant response rating (corn (Zea mays); [20]) | Plant response rating, Blackgrass [13, 14]
50: Plant response rating, Velvetleaf [9, 17]
98: Plant response rating, Ragweed [1, 15] | Plant response rating, Ragweed [1, 19] | Ragweed plant response rating [1, 20] | Plant response rating, Waterhemp [2, 16] | Plant response rating, Lambsquarters [5, 15] | Plant response rating, Lambsquarters [5, 16] | Plant response rating, Morningglory [7, 14] | Plant response rating, Morningglory [7, 15] | Plant response rating, Morningglory [7, 19] | Morningglory plant response rating [7, 20]
35: Plant response rating, Barnyardgrass [4, 18] | Plant response rating, Barnyardgrass [4, 19] | Barnyardgrass plant response rating [4, 21] | Plant response rating, Nutsedge, Yellow [11, 17] | Plant response rating, Blackgrass [13, 15] | Blackgrass plant response rating [13, 21]
80: Plant response rating, Morningglory [7, 17] | Plant response rating, Nutsedge, Yellow [11, 18] | Nutsedge, Yellow plant response rating [11, 20] | Plant response rating, Oilseed Rape [12, 14]
90: Plant response rating, Ragweed [1, 14] | Plant response rating, Ragweed [1, 18] | Plant response rating, Waterhemp [2, 15] | Plant response rating, Waterhemp [2, 18] | Plant response rating, Galium [3, 14] | Plant response rating, Galium [3, 17] | Plant response rating, Galium [3, 18] | Plant response rating, Lambsquarters [5, 14] | Plant response rating, Lambsquarters [5, 18] | Plant response rating, Lambsquarters [5, 19] | Plant response rating, Ryegrass, Italian [6, 14] | Plant response rating, Ryegrass, Italian [6, 15] | Plant response rating, Ryegrass, Italian [6, 16] | Plant response rating, Ryegrass, Italian [6, 19] | Plant response rating, Morningglory [7, 18] | Velvetleaf plant response rating [9, 20] | Plant response rating, Oilseed Rape [12, 18] | Plant response rating, Oilseed Rape [12, 19] | Oilseed Rape plant response rating [12, 20]
20: Plant response rating, Barnyardgrass [4, 14]
25: Plant response rating, Crabgrass, Large [8, 15] | Plant response rating, Corn (corn (Zea mays); [15])
70: Plant response rating, Crabgrass, Large [8, 18] | Crabgrass, Large plant response rating [8, 20] | Plant response rating, Velvetleaf [9, 14] | Plant response rating, Nutsedge, Yellow [11, 15] | Plant response rating, Nutsedge, Yellow [11, 19]
100: Plant response rating, Ragweed [1, 16] | Plant response rating, Waterhemp [2, 19] | Waterhemp plant response rating [2, 20] | Lambsquarters plant response rating [5, 20] | Plant response rating, Morningglory [7, 16] | Plant response rating, Velvetleaf [9, 15] | Plant response rating, Velvetleaf [9, 16]
85: Plant response rating, Waterhemp [2, 14] | Barnyardgrass plant response rating [4, 20] | Plant response rating, Lambsquarters [5, 17] | Plant response rating, Ryegrass, Italian [6, 18] | Plant response rating, Velvetleaf [9, 19] | Plant response rating, Foxtail, Giant [10, 16] | Plant response rating, Foxtail, Giant [10, 18] | Plant response rating, Foxtail, Giant [10, 19] | Plant response rating, Oilseed Rape [12, 15] | Blackgrass plant response rating [13, 20]
40: Plant response rating, Barnyardgrass [4, 15] | Plant response rating, Crabgrass, Large [8, 16] | Corn plant response rating (corn (Zea mays); [21])
30: Plant response rating, Corn (corn (Zea mays); [16]) | Plant response rating, Foxtail, Giant [10, 14] | Plant response rating, Nutsedge, Yellow [11, 14]
0: Plant response rating, Soybean (soybean (Glycine max); [17]) | Plant response rating, Soybean (soybean (Glycine max); [18]) | Plant response rating, Soybean (soybean (Glycine max); [19]) | Soybean plant response rating (soybean (Glycine max); [20]) | Plant response rating, Blackgrass [13, 18]
75: Plant response rating, Ragweed [1, 17] | Plant response rating, Waterhemp [2, 17] | Plant response rating, Velvetleaf [9, 18] | Plant response rating, Foxtail, Giant [10, 15] | Plant response rating, Nutsedge, Yellow [11, 16]
65: Plant response rating, Crabgrass, Large [8, 19] | Plant response rating, Foxtail, Giant [10, 17]
